Assay results published in ChEMBL document CHEMBL1138598, “Interactions of curcumin with the PfATP6 model and the implications for its antimalarial mechanism” (Bioorg Med Chem Lett, 2009).

Legend:
[1] = test system: Plasmodium falciparum; assay: Antimalarial activity against chloroquine-resistant Plasmodium falciparum FCK by [3H]hypoxanthine uptake; assay type: functional, organism-based
[2] = Binding affinity to Plasmodium falciparum ATPase6
[3] = Inhibition of Plasmodium falciparum ATPase6 expressed in Xenopus oocytes; assay type: cell-based; conditions: oocyte

Structure (SMILES)	IC50 [1] [nM]	Kd [2] [nM]	Kd [3] [nM]
COc1cc(/C=C/C(=O)CC(=O)/C=C/c2ccc(O)c(OC)c2)ccc1O [CURCUMIN]	15000	–	–
COc1cc(/C=C/C(=O)CC(=O)/C=C/c2ccc(O)c(OC)c2)ccc1O (stereo in doubt; form 1) [CURCUMIN]	–	1150	–
COc1cc(/C=C/C(=O)CC(=O)/C=C/c2ccc(O)c(OC)c2)ccc1O (stereo in doubt; form 2) [CURCUMIN]	–	2450	–
C[C@@H]1CC[C@H]2[C@@H](C)C(=O)O[C@@H]3O[C@@]4(C)CC[C@@H]1[C@]32OO4 [ARTEMISININ]	45	–	150
